Test results as given in US6737383B1, “Herbicidal oxadiazolidines” (priority 1999, dated 2004).

Legend:
Green foxtail [1] = test: Test D green foxtail; type: in vivo; conditions: Postemergence, 0 to 100 scale, 0 no injury, 100 complete control
goosegrass = test: Test D goosegrass; type: in vivo, Eleusine indica; conditions: Postemergence, 0 to 100 scale
Green foxtail [2] = test: Test D green foxtail; type: in vivo; conditions: Postemergence, 0 to 100 scale, 0 no injury, 100 complete control; remark: listed apart in the source
Green foxtail [3] = test: Test D green foxtail; type: in vivo; conditions: Rate 250 g/ha; Postemergence; 0 to 100 scale
Alexandergrass = test: Test D Alexandergrass; type: in vivo, Brachiaria plantaginea; conditions: Postemergence, 0 to 100 scale
lambsquarters = test: Test C postemergence lambsquarters; type: in vivo, Chenopodium album; conditions: 0 to 100 scale, 0 no effect, 100 complete control
Method: (§1) Compounds evaluated in this test were formulated in a non-phytotoxic solvent mixture which included a surfactant and applied to plants that were grown for various periods of time before treatment (postemergence application). A mixture of sandy loam soil and greenhouse potting mix in a 60:40 ratio was used for the postemergence test.
(§2) Plantings of these crops and weed species were adjusted to produce plants of appropriate size for the postemergence test. All plant species were grown using normal greenhouse practices. Crop and weed species include arrowleaf sida (Sida rhombifolia), barnyardgrass (Echinochloa crus-galli), cocklebur (Xanthium strumarium), common ragweed (Ambrosia elatior), corn (Zea mays), cotton (Gossypium hirsutum), eastern black nightshade (Solanum ptycanthum), fall panicum (Panicum dichotomiflorum), field bindweed (Convolvulus arvensis), giant foxtail (Setaria faberii), hairy beggarticks (Bidens pilosa), ivyleaf morningglory (Ipomoea hederacea), johnsongrass (Sorghum halepense), ladysthumb smartweed (Polygonum persicaria), lambsquarters (Chenopodium album), large crabgrass (Digitaria sanguinalis), purple nutsedge (Cyperus rotundus), redroot pigweed (Amaranthus retroflexus), soybean (Glycine max), surinam grass (Brachiaria decumbens), velvetleaf (Abutilon theophrasti) and wild poinsettia (Euphorbia heterophylla).
(§3) Treated plants and untreated controls were maintained in a greenhouse for approximately 14, to 21 days, after which all treated plants were compared to untreated controls and visually evaluated. Plant response ratings, summarized in Table C, were based upon a 0 to 100 scale where 0 was no effect and 100 was complete control. A dash response (−) means no test result.

littleseed canarygrass = test: Test E littleseed canarygrass; type: in vivo, Phalaris minor; conditions: Postemergence; for Plant response rating, LS canarygrass: 0 to 100 scale; for LS canarygrass plant response rating: Rate 250 g/ha, 0 to 100 scale where 0 is no effect and 100 is complete control
Method: (§4) Compounds evaluated in this test were formulated in a non-phytotoxic solvent mixture which included a surfactant and applied to plants that were in the 1- to 4-leaf stage (postemergence application). A mixture of sandy loam soil and greenhouse potting mix in a 60:40 ratio was used for the postemergence test.
(§5) Plantings of these crops and weed species were adjusted to produce plants of appropriate size for the postemergence test. All plant species were grown using normal greenhouse practices. Crop and weed species include annual bluegrass (Poa annua), blackgrass (Alopecurus myosuroides), black nightshade (Solanum nigra), chickweed (Stellaria media), common poppy (Papaver rhoeas), deadnettle (Lamium amplexicaule), downy brome (Bromus tectorum), field violet (Viola arvensis), galium (Galium aparine), green foxtail (Setaria viridis), Italian ryegrass (Lolium multiflorum), jointed goatgrass (Aegilops cylindrica), kochia (Kochia scoparia), lambsquarters (Chenopodium album), littleseed canarygrass (Phalaris minor), rape (Brassica napus), redroot pigweed (Amaranthus retroflexus), Russian thistle (Salsola kali), scentless chamomile (Matricaria inodora), spring barley (Hordeum vulgare), sugar beet (Beta vulgaris), sunflower (Helianthus annuus), ivyleaf speedwell (Veronica hederaefolia), spring wheat (Triticum aestivum), winter wheat (Triticum aestivum), wild buckwheat (Polygonum convolvulus), wild mustard (Sinapis arvensis), wild oat (Avena fatua), windgrass (Apera spica-venti) and winter barley (Hordeum vulgare).
(§6) Treated plants and untreated controls were maintained in a greenhouse for approximately 21 to 28 days, after which all treated plants were compared to untreated controls and visually evaluated. […] A dash response (-) means no test result.

wild mustard = test: Test E wild mustard; type: in vivo, Sinapis arvensis; conditions: Preemergence; for Wild mustard plant response rating (0 to 100 scale): Rate 250 g/ha
chickweed = test: Test E chickweed; type: in vivo, Stellaria media; conditions: Postemergence; for Plant response rating, Chickweed: 0 to 100 scale; for Chickweed plant response rating: Rate 250 g/ha, 0 to 100 scale where 0 is no effect and 100 is complete control
Method in brief: (§7)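 Postemergence: spray at 1–4 leaf stage, soil 60:40 sandy loam:potting mix; solvent + surfactant formulation; greenhouse 21–28 d; visual injury vs untreated controls.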

sugar beet = test: Test E sugar beet; type: in vivo, Beta vulgaris; conditions: Preemergence; for Sugar beet plant response rating (0 to 100 scale): Rate 250 g/ha
Russian thistle = test: Test E Russian thistle; type: in vivo, Salsola kali; conditions: Postemergence; for Plant response rating, Russian thistle: 0 to 100 scale; for Russian thistle plant response rating: Rate 250 g/ha, 0 to 100 scale where 0 is no effect and 100 is complete control
Method in brief: as §7

common poppy = test: Test E common poppy; type: in vivo, Papaver rhoeas; conditions: Postemergence; for Common poppy plant response rating: Rate 250 g/ha, 0 to 100 scale where 0 is no effect and 100 is complete control
Method: as §4, §5, §6

sourgrass = test: Test D sourgrass; type: in vivo, Trichachne insularis; conditions: Preemergence, 0 to 100 scale
Method in brief: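 Seeds were sown in greenhouse pots, one species per pot or compartment. Compounds were in a non-phytotoxic solvent mixture with surfactant; preemergence applications went on the sandy loam surface within one day of planting. Injury was rated visually after 14 to 21 days, 0 (none) to 100 (complete control).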

windgrass = test: Test E windgrass; type: in vivo, Apera spica-venti; conditions: Postemergence; for Plant response rating, Windgrass: 0 to 100 scale
Method in brief: as §7

field bindweed = test: Test C postemergence field bindweed; type: in vivo, Convolvulus arvensis; conditions: 0 to 100 scale, 0 no effect, 100 complete control
Method: as §1, §2, §3

spring barley = test: Test E spring barley; type: in vivo, Hordeum vulgare; conditions: Preemergence; for Spring Barley plant response rating (0 to 100 scale): Rate 250 g/ha
jointed goatgrass = test: Test E jointed goatgrass; type: in vivo, Aegilops cylindrica; conditions: Postemergence; for Plant response rating, Jointed goatgra: 0 to 100 scale; for Jointed goatgra plant response rating: Rate 250 g/ha, 0 to 100 scale where 0 is no effect and 100 is complete control
Method: as §4, §5, §6

[4] = Rate 16 g/ha, 0 no injury, 100 complete control
[5] = Rate 32 g/ha, 0 no injury, 100 complete control
[6] = Rate 64 g/ha, 0 no injury, 100 complete control
[7] = Rate 125 g/ha, 0 no injury, 100 complete control
[8] = Rate 125 g/ha, 0 to 100 scale (0 no effect, 100 complete control)
[9] = Rate 125 g/ha, 0 is no effect, 100 is complete control
[10] = Rate 500 g/ha, 0 is no effect, 100 is complete control
[11] = Rate 500 g/ha, 0 to 100 scale where 0 is no effect and 100 is complete control

SMILES: CC(C)N(C(=O)n1oc(=O)n(C2CCCCCC2)c1=O)c1ccc(F)cc1F [Compound 342]
- Plant response rating, Green foxtail (Green foxtail [1]; Rate 64 g/ha): 0
- Plant response rating, Green foxtail (Green foxtail [1]; Rate 125 g/ha): 60
- Plant response rating, Goosegrass (goosegrass; [4]): 20
- Plant response rating, Goosegrass (goosegrass; [5]): 30
- Plant response rating, Goosegrass (goosegrass; [6]): 90
- Plant response rating, Goosegrass (goosegrass; [7]): 100
- Plant response rating, Goosegrass (goosegrass; Rate 250 g/ha): 100
- Plant response rating, Green foxtail (Green foxtail [2]; Rate 16 g/ha): 0
- Plant response rating, Green foxtail (Green foxtail [2]; Rate 32 g/ha): 0
- Plant response rating, Green foxtail (Green foxtail [3]): 100
- Plant response rating, Alexandergrass (Alexandergrass; [4]): 0
- Plant response rating, Alexandergrass (Alexandergrass; [5]): 0
- Plant response rating, Alexandergrass (Alexandergrass; [6]): 0
- Plant response rating, Alexandergrass (Alexandergrass; [7]): 70
- Plant response rating, Alexandergrass (Alexandergrass; Rate 250 g/ha): 80

SMILES: CC(C)N(C(=O)n1oc(=O)n(C)c1=O)c1ccc(F)cc1 [Compound 138]
- Plant response rating Lambsquarters (lambsquarters; Rate 140 g/ha): 0
- Plant response rating Lambsquarters (lambsquarters; Rate 280 g/ha): 0
- Plant response rating Lambsquarters (lambsquarters; Rate 560 g/ha): 10
- Plant response rating Lambsquarters (lambsquarters; Rate 1120 g/ha): 20
- Plant response rating, LS canarygrass (littleseed canarygrass; Rate 125 g/ha): 10
- LS canarygrass plant response rating (littleseed canarygrass): 10
- Plant response rating, Wild mustard (wild mustard; [8]): 40
- Wild mustard plant response rating (0 to 100 scale) (wild mustard): 55
- Plant response rating, Chickweed (chickweed; Rate 125 g/ha): 0
- Chickweed plant response rating (chickweed): 0
- Plant response rating, Sugar beet (sugar beet; [8]): 0
- Sugar beet plant response rating (0 to 100 scale) (sugar beet): 50
- Plant response rating, Russian thistle (Russian thistle; Rate 125 g/ha): 0
- Russian thistle plant response rating (Russian thistle): 0
- Plant response rating, Comnion poppy (common poppy; Rate 125 g/ha, 0 to 100 scale): 20
- Common poppy plant response rating (common poppy): 40
- Plant response rating Sourgrass (sourgrass; [6]): 98
- Plant response rating Sourgrass (sourgrass; [7]): 100
- Plant response rating Sourgrass (sourgrass; Rate 500 g/ha): 100
- Windgrass plant response rating (windgrass; Rate 250 g/ha, 0 to 100 scale where 0 is no effect and 100 is complete control): 95
- Plant response rating Field bindweed (field bindweed; Rate 140 g/ha): 0
- Plant response rating Field bindweed (field bindweed; Rate 280 g/ha): 0
- Plant response rating Field bindweed (field bindweed; Rate 560 g/ha): 0
- Plant response rating Field bindweed (field bindweed; Rate 1120 g/ha): 50
- Plant response rating, Spring Barley (spring barley; [8]): 60
- Spring Barley plant response rating (0 to 100 scale) (spring barley): 90
- Plant response rating, Jointed goatgra (jointed goatgrass; Rate 125 g/ha): 0
- Jointed goatgra plant response rating (jointed goatgrass): 0

SMILES: COc1ccccc1-n1c(=O)on(C(=O)N(c2ccc(F)cc2)C(C)C)c1=O [Compound 30]
- Plant response rating Sourgrass (sourgrass; [6]): 100

SMILES: CC(C)N(C(=O)n1oc(=O)n(C2CC2)c1=O)c1ccc(F)cc1 [Compound 242]
- Plant response rating, Green foxtail (Green foxtail [1]; Rate 64 g/ha): 100
- Plant response rating, Green foxtail (Green foxtail [1]; Rate 125 g/ha): 100
- Plant response rating Lambsquarters (lambsquarters; Rate 140 g/ha): 0
- Plant response rating Lambsquarters (lambsquarters; Rate 280 g/ha): 0
- Plant response rating Lambsquarters (lambsquarters; Rate 560 g/ha): 0
- Plant response rating Lambsquarters (lambsquarters; Rate 1120 g/ha): 0
- Plant response rating, LS canarygrass (littleseed canarygrass; Rate 62 g/ha): 65
- Plant response rating, LS canarygrass (littleseed canarygrass; [9]): 10
- LS canarygrass plant response rating (littleseed canarygrass): 15
- Plant response rating, LS canarygrass (littleseed canarygrass; [10]): 50
- Plant response rating, Wild mustard (wild mustard; [8]): 65
- Wild mustard plant response rating (0 to 100 scale) (wild mustard): 65
- Plant response rating, Wild mustard (wild mustard; [11]): 70
- Plant response rating, Chickweed (chickweed; Rate 62 g/ha): 0
- Plant response rating, Chickweed (chickweed; [9]): 30
- Chickweed plant response rating (chickweed): 0
- Plant response rating, Chickweed (chickweed; [10]): 50
- Plant response rating, Goosegrass (goosegrass; [4]): 90
- Plant response rating, Goosegrass (goosegrass; [5]): 100
- Plant response rating, Goosegrass (goosegrass; [6]): 100
- Plant response rating, Goosegrass (goosegrass; [7]): 100
- Plant response rating, Goosegrass (goosegrass; Rate 250 g/ha): 100
- Plant response rating, Sugar beet (sugar beet; [8]): 30
- Sugar beet plant response rating (0 to 100 scale) (sugar beet): 50
- Plant response rating, Sugar beet (sugar beet; [11]): 65
- Plant response rating, Green foxtail (Green foxtail [2]; Rate 16 g/ha): 30
- Plant response rating, Green foxtail (Green foxtail [2]; Rate 32 g/ha): 100
- Plant response rating, Russian thistle (Russian thistle; Rate 62 g/ha): 50
- Plant response rating, Russian thistle (Russian thistle; [9]): 0
- Russian thistle plant response rating (Russian thistle): 0
- Plant response rating, Russian thistle (Russian thistle; [10]): 0
- Plant response rating, Common poppy (common poppy; Rate 62 g/ha, 0 to 100 scale): 55
- Plant response rating, Common poppy (common poppy; Rate 125 g/ha, 0 to 100 scale, 0 is no effect, 100 is complete control): 40
- Common poppy plant response rating (common poppy): 20
- Plant response rating, Common poppy (common poppy; Rate 500 g/ha, 0 to 100 scale, 0 is no effect, 100 is complete control): 0
- Plant response rating, Green foxtail (Green foxtail [3]): 100
- Plant response rating, Windgrass (windgrass; Rate 62 g/ha): 90
- Plant response rating, Windgrass (windgrass; [9]): 95
- Plant response rating, Windgrass (windgrass; [10]): 95
- Plant response rating Field bindweed (field bindweed; Rate 140 g/ha): 0
- Plant response rating Field bindweed (field bindweed; Rate 560 g/ha): 0
- Plant response rating Field bindweed (field bindweed; Rate 1120 g/ha): 0
- Plant response rating, Alexandergrass (Alexandergrass; [4]): 0
- Plant response rating, Alexandergrass (Alexandergrass; [5]): 50
- Plant response rating, Alexandergrass (Alexandergrass; [6]): 90
- Plant response rating, Alexandergrass (Alexandergrass; [7]): 100
- Plant response rating, Alexandergrass (Alexandergrass; Rate 250 g/ha): 100
- Plant response rating, Spring Barley (spring barley; [8]): 60
- Spring Barley plant response rating (0 to 100 scale) (spring barley): 70
- Plant response rating, Spring Barley (spring barley; [11]): 85
- Plant response rating, Jointed goatgra (jointed goatgrass; Rate 62 g/ha): 55
- Plant response rating, Jointed goatgra (jointed goatgrass; [9]): 0
- Jointed goatgra plant response rating (jointed goatgrass): 0
- Plant response rating, Jointed goatgra (jointed goatgrass; [10]): 40
